The target in data set [1] is Luciferin 4-monooxygenase (Photinus pyralis, UniProt P08659). In words: Effect on firefly luciferase activity expressed in human HepG2 cells at low concentration after 5 hrs by luminescence assay. In kind it is ADME, cell-based. The note with it: hepg2, 5 h.
The target of data set [2] is T1, Nuclear factor erythroid 2-related factor 2 (Homo sapiens) (UniProt Q16236).
T1 sequence (whole entry): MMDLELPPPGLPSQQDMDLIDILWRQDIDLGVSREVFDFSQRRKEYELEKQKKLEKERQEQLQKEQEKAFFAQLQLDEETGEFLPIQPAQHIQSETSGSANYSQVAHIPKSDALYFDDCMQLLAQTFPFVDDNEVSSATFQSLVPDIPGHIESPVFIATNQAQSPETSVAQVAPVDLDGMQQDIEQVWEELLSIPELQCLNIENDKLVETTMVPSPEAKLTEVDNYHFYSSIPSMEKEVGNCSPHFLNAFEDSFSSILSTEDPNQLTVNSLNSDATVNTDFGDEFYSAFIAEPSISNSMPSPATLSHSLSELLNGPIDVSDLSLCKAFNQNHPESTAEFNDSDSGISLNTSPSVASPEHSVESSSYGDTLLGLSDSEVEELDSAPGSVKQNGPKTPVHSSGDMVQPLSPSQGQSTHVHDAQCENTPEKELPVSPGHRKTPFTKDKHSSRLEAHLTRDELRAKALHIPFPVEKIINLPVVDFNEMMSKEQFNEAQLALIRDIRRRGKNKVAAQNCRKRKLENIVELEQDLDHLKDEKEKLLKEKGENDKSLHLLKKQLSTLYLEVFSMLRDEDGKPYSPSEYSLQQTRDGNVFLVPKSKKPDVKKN
In words: Activation of Nrf2 (unknown origin) expressed in human HepG2 cells at 15 uM after 5 hrs by ARE-driven luciferase reporter gene assay relative to control. It is filed as cell-based. On the technique in general: Reporter assays use an easily measured gene product as a stand-in for the process of interest.

Structures are written as SMILES. Active and inactive are the calls of the source.

Sequence of Luciferin 4-monooxygenase (P08659 whole entry): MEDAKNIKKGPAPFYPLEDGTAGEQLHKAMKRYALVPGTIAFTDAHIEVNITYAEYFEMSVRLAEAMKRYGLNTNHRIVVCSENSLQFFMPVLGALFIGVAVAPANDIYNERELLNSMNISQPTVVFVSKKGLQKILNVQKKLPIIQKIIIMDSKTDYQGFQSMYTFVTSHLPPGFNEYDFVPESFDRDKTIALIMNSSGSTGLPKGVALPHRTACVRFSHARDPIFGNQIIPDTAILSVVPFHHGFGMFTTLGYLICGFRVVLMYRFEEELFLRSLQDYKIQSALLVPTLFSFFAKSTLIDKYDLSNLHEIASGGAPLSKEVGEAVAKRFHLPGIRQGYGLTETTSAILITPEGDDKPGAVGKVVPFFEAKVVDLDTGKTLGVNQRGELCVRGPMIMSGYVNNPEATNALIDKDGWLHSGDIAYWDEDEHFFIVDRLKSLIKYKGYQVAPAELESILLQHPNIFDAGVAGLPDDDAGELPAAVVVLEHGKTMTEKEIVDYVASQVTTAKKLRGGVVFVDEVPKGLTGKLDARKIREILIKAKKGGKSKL

Regarding `O=C(/C=C/c1c(Cl)cccc1Cl)/C=C/c1c(Cl)cccc1Cl`, the Activity result in data set [1] is listed as “Non-Toxic”. Also, in data set [2], the outcome was inactive.
On to `CC(C)c1ccc(/C=C2\CN(C)C/C(=C\c3ccc(C(C)C)cc3)C2=O)cc1`, for which, in data set [1], the Activity entry is given as “Non-Toxic”. Also, in data set [2], the result was Active.
Regarding `COc1ccc(OC)c(/C=C/C(=O)CC(=O)/C=C/c2cc(OC)ccc2OC)c1`, the Activity entry in data set [1] is reported as “Non-Toxic”. Further, the result in data set [2] was Active.
With `COc1cc(/C=C/C(=O)CC(=O)/C=C/c2cc(OC)cc(OC)c2)cc(OC)c1`, in data set [1], the Activity entry was “Non-Toxic”. The outcome in data set [2] was Active.
As for `O=C(/C=C/c1ccccc1)C(Cc1ccccc1)(Cc1ccccc1)C(=O)/C=C/c1ccccc1`, the Activity entry in data set [1] is on record as “Non-Toxic”. Moreover, the outcome in data set [2] was Active.
Taken in the same sequence, the figures for `COc1cc(C(=O)/C=C/c2ccccc2)ccc1O` were “Non-Toxic” and “Active”.
Taken in the same sequence, the figures for `COc1ccc(/C=C/C(=O)CC(=O)/C=C/c2ccc(OC)cc2)cc1` were “Non-Toxic” and “Active”.
In the case of `O=C(/C=C/c1ccc(Cl)cc1)/C=C/c1ccc(Cl)cc1`, the Activity result in data set [1] is recorded as “Non-Toxic”. Moreover, the result in data set [2] was inactive.
For the compound `Cc1ccc(/C=C/C(=O)CC(=O)/C=C/c2ccc(C)cc2)cc1`, the Activity entry in data set [1] is “Non-Toxic”. The outcome in data set [2] was inactive.
Take `COc1cc(/C=C/C(=O)c2ccc(O)c(OC)c2)ccc1O`: the Activity result in data set [1] is given as “Non-Toxic”. Moreover, the outcome in data set [2] was Active.
On to `COc1cc(/C=C/C(=O)/C=C/c2ccc(O)c(OC)c2)ccc1O`, for which the Activity entry in data set [1] is reported as “Non-Toxic”. Besides, in data set [2], the fold change (FC) came out at 25.1.
For the compound `O=C1/C(=C/c2c(Cl)cccc2Cl)CCC/C1=C\c1c(Cl)cccc1Cl`, in data set [1], the Activity entry is recorded as “Non-Toxic”. Also, the outcome in data set [2] was Active.
For `Cc1ccc(C(=O)/C=C/c2ccccc2)c(C)c1`, in data set [1], the Activity result is recorded as “Non-Toxic”. The fold change (FC) in data set [2] was found to be 29.9.
Consider `CN(C)c1ccc(/C=C/C(=O)/C=C/c2ccc(N(C)C)cc2)cc1`, for which the Activity entry in data set [1] is listed as “Non-Toxic”. In data set [2], the outcome was inactive.
Taken in the same sequence, the figures for `O=C(/C=C/c1ccccc1)c1ccccc1` [CHALCONE] were “Non-Toxic” and “Active”.
As to `O=C(/C=C/c1cccc(Cl)c1)/C=C/c1cccc(Cl)c1`, the Activity result in data set [1] is reported as “Non-Toxic”. Also, the outcome in data set [2] was inactive.
The like results for `O=C(/C=C/c1cccc(O)c1)CC(=O)/C=C/c1cccc(O)c1` were, in that order, “Non-Toxic” and “Active”.
Taken in the same sequence, the figures for `O=C(O)c1ccc(/C=C/C(=O)c2ccccc2)cc1` were “Non-Toxic” and “Active”.
Take `O=C(/C=C/c1ccccc1Cl)/C=C/c1ccccc1Cl`: in data set [1], the Activity entry is recorded as “Non-Toxic”. The result in data set [2] was Active.
With `O=C(/C=C/c1ccccc1C(F)(F)F)/C=C/c1ccccc1C(F)(F)F`, in data set [1], the Activity entry is on record as “Non-Toxic”. Further, the result in data set [2] was inactive.
The like results for `COc1cccc(/C=C/C(=O)CC(=O)/C=C/c2cccc(OC)c2)c1` were, in that order, “Non-Toxic” and “Active”.
For the compound `COc1cccc(/C=C2\CCC/C(=C\c3cccc(OC)c3)C2=O)c1`, in data set [1], the Activity entry is recorded as “Non-Toxic”. Further, the result in data set [2] was Active.
Regarding `CN1C/C(=C\c2cccc(C(F)(F)F)c2)C(=O)/C(=C/c2cccc(C(F)(F)F)c2)C1`, the Activity result in data set [1] is “Non-Toxic”. The outcome in data set [2] was Active.
As to `Cc1cccc(/C=C2\CN(C)C/C(=C\c3cccc(C)c3)C2=O)c1`, the Activity result in data set [1] is on record as “Non-Toxic”. The result in data set [2] was Active.
As to `CN(C)c1ccc(/C=C/C(=O)CC(=O)/C=C/c2ccc(N(C)C)cc2)cc1`, in data set [1], the Activity entry is “Non-Toxic”. For the same compound, the outcome in data set [2] was inactive.
Taken in the same sequence, the figures for `O=C(/C=C/c1ccc(O)cc1)CC(=O)/C=C/c1ccc(O)cc1` [BISDEMETHOXYCURCUMIN] were “Non-Toxic” and “Active”.
The like results for `COc1ccc(/C=C2\CCC/C(=C\c3ccc(OC)cc3OC)C2=O)c(OC)c1` were, in that order, “Non-Toxic” and “inactive”.
Taken in the same sequence, the figures for `COc1ccc(/C=C/C(=O)CC(=O)/C=C/c2ccc(OC)c(O)c2)cc1O` were “Non-Toxic” and “Active”.

These data come from ChEMBL document CHEMBL4138237, “Activation of anti-oxidant Nrf2 signaling by enone analogues of curcumin” (Eur J Med Chem, 2018).
